From patent US20060276464A1, “Diarylsulfone sulfonamides and use thereof” (Wyeth, priority 2005, published 2006)
Read-outs that look alike come from different tables or passages of the source.

Target: T1, SFRP-1 (Homo sapiens, UniProt Q8N474)
T1 sequence (Q8N474 32-314): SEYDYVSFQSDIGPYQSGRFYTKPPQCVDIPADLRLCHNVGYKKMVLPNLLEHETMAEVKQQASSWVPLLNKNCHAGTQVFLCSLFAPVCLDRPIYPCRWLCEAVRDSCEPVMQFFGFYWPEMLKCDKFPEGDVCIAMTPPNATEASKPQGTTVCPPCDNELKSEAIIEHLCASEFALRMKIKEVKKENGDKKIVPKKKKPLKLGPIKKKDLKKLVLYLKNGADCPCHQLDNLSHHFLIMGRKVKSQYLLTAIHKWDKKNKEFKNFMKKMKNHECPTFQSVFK
Assay: Cell-based assay for in vitro measurement of SFRP-1/SARP2 antagonist activity (U2OS cells co-transfected with 16x TCF-tk-Luciferase reporter, Wnt and hSFRP-1);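 also: U2OS cells co-transfected with a TCF-tk luciferase reporter, a Wnt vector, hSFRP-1 or empty vector and CMV-βgal, luciferase luminescence read in cell lysates alongside βgal activity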
Settings: for fold induction at 15 µM / fold induction at 10 µM / fold induction at 30 µM / fold induction at 60 µM: U2OS; for fold induction at 10 µM: read-out: Fold Induction with SFRP-1, U2OS cells, single dose 10 μM, luciferase reporter, fold induction over SFRP-1 control

[1] = read-out: Fold Induction with SFRP-1, Conc 15 μM, with SFRP-1, fold induction over SFRP-1 control, single dose
[2] = read-out: Fold Induction without SFRP-1, Conc 15 μM, without SFRP-1, single dose
[3] = read-out: Fold Induction with SFRP-1, Conc 15 μM, single dose, luciferase reporter, fold induction over SFRP-1 control, cells with SFRP-1
[4] = read-out: Fold Induction without SFRP-1, Conc 15 μM, single dose, luciferase reporter, cells without SFRP-1 (specificity control)
[5] = read-out: Fold Induction with SFRP-1, Conc 30 μM, with SFRP-1, fold induction over SFRP-1 control, single dose
[6] = read-out: Fold Induction without SFRP-1, Conc 30 μM, without SFRP-1, single dose

Work on Cc1ccc(S(=O)(=O)c2ccccc2)cc1S(=O)(=O)NCC(C)(C)C [Example 396, N-(2,2-dimethylpropyl)-2-methyl-5-(phenylsulfonyl)benzenesulfonamide] yielded a fold induction at 15 µM [1] of 1.4 and a fold induction at 15 µM [2] of 1.
For Cc1ccc(S(=O)(=O)c2cccc(-c3ccccc3)c2)cc1S(=O)(=O)NCCc1ccccn1 [Example 434, 5-(biphenyl-3-ylsulfonyl)-2-methyl-N-(2-pyridin-2-ylethyl)benzenesulfonamide], the fold induction at 15 µM [1] was 2.1 and the fold induction at 15 µM [2] was 1.1.
With Cc1ccc(S(=O)(=O)c2ccccc2)cc1S(=O)(=O)NCCCN1CCOCC1 [Example 206, 2-methyl-N-(3-morpholin-4-ylpropyl)-5-(phenylsulfonyl)benzenesulfonamide] the fold induction at 15 µM [1] was 2.2 and the fold induction at 15 µM [2] was 0.5.
In the case of COc1ccc(S(=O)(=O)c2ccc(C)c(S(=O)(=O)NCCCn3ccnc3)c2)cc1 [Example 315, N-[3-(1H-imidazol-1-yl)propyl]-5-[(4-methoxyphenyl)sulfonyl]-2-methylbenzenesulfonamide], the fold induction at 15 µM [1] is reported as 1.8 and the fold induction at 15 µM [2] is reported as 1.3.
Cc1ccc(S(=O)(=O)c2ccc(F)cc2)cc1S(=O)(=O)NCCC(N)=O [Example 159, N^3-({5-[(4-fluorophenyl)sulfonyl]-2-methylphenyl}sulfonyl)-beta-alaninamide] showed a fold induction at 15 µM [1] of 1.8 and a fold induction at 15 µM [2] of 0.9.
Cc1ccc(S(=O)(=O)c2ccccc2)cc1S(=O)(=O)NCCC1CCOCC1 [Example 299, 2-methyl-5-(phenylsulfonyl)-N-(2-tetrahydro-2H-pyran-4-ylethyl)benzenesulfonamide] was tested, and the fold induction at 15 µM [1] was 3.1 and the fold induction at 15 µM [2] was 1.1.
With Cc1ccc(S(=O)(=O)c2ccccc2)cc1S(=O)(=O)NCCC(=O)N(C)c1ccccc1 [Example 668, N-methyl-N^3-{[2-methyl-5-(phenylsulfonyl)phenyl]sulfonyl}-N-phenyl-β-alaninamide] the fold induction at 10 µM was 1.4.
Work on CC(=O)c1ccc(S(=O)(=O)c2ccc(C)c(S(=O)(=O)NC3CCOCC3)c2)cc1 [Example 380, 5-[(4-acetylphenyl)sulfonyl]-2-methyl-N-(tetrahydro-2H-pyran-4-yl)benzenesulfonamide] yielded a fold induction at 15 µM [1] of 0.5 and a fold induction at 15 µM [2] of 0.6.
CC(C)(C)OC(=O)NC1CCN(S(=O)(=O)c2cc(S(=O)(=O)c3ccccc3)ccc2Cl)C1 (centres unmarked) [Example 638, tert-butyl(1-{[2-chloro-5-(phenylsulfonyl)phenyl]sulfonyl}pyrrolidin-3-yl)carbamate] gave a fold induction at 15 µM [3] of 1.2 and a fold induction at 15 µM [4] of 1.1.
Cc1ccc(S(=O)(=O)c2ccccc2)cc1S(=O)(=O)NC1CC1 [Example 424, N-cyclopropyl-2-methyl-5-(phenylsulfonyl)benzenesulfonamide] was tested, and the fold induction at 15 µM [1] was 2.1 and the fold induction at 15 µM [2] was 1.2.
With Cc1ccc(S(=O)(=O)c2ccccc2)cc1S(=O)(=O)NC(C)(C)CO [Example 404, N-(2-hydroxy-1,1-dimethylethyl)-2-methyl-5-(phenylsulfonyl)benzenesulfonamide] the fold induction at 15 µM [1] was 1.2 and the fold induction at 15 µM [2] was 1.1.
CCc1ccc(S(=O)(=O)c2ccccc2)cc1S(=O)(=O)N[C@H]1C[C@@H]1c1ccccc1 [Example 267, 2-ethyl-N-[(1S,2R)-2-phenylcyclopropyl]-5-(phenylsulfonyl)benzenesulfonamide] was tested, and the fold induction at 15 µM [1] was 2 and the fold induction at 15 µM [2] was 1.2.
With Cc1ccc(S(=O)(=O)c2ccc(F)cc2)cc1S(=O)(=O)NCCCN1CCCC1=O [Example 170, 5-[(4-fluorophenyl)sulfonyl]-2-methyl-N-[3-(2-oxopyrrolidin-1-yl)propyl]benzenesulfonamide] the fold induction at 15 µM [1] was 2.3 and the fold induction at 15 µM [2] was 0.9.
In the case of Cc1ccc(S(=O)(=O)c2ccccc2)cc1S(=O)(=O)NCCc1ccccc1F [Example 53, N-[2-(2-fluorophenyl)ethyl]-2-methyl-5-(phenylsulfonyl)benzenesulfonamide], the “Fold Induction with SFRP-1” value (Conc 30 μM, with SFRP-1, fold induction over SFRP-1 control, single dose) is reported as 1.2 fold, the “Fold Induction without SFRP-1” value (Conc 30 μM, without SFRP-1, single dose) is reported as 0.6 fold and the fold induction at 30 µM [5] is reported as 1. The fold induction at 30 µM [6] was 0.4.
With O=S(=O)(NCCCN1CCCC1)c1cccc(S(=O)(=O)c2ccccc2)c1 [Example 200, 3-(phenylsulfonyl)-N-(3-pyrrolidin-1-ylpropyl)benzenesulfonamide] the fold induction at 30 µM [5] was 1.4 and the fold induction at 30 µM [6] was 1.8.
COc1ccc(S(=O)(=O)c2ccccc2)cc1S(=O)(=O)NC1Cc2ccccc2C1 [Example 269, N-2,3-dihydro-1H-inden-2-yl-2-methoxy-5-(phenylsulfonyl)benzenesulfonamide] was tested, and the fold induction at 15 µM [1] was 1.4 and the fold induction at 15 µM [2] was 1.2.
Work on Cc1ccc(S(=O)(=O)c2ccc(NC(C)c3ccccc3)cc2)cc1S(=O)(=O)NCCCn1ccnc1 (centres unmarked) [Example 355, N-[3-(1H-imidazol-1-yl)propyl]-2-methyl-5-({4-[(1-phenylethyl)amino]phenyl}sulfonyl)benzenesulfonamide] yielded a fold induction at 15 µM [1] of 3.4 and a fold induction at 15 µM [2] of 0.9.
Compound Cc1ccc(S(=O)(=O)c2ccccc2)c(C)c1S(=O)(=O)NCCc1ccccn1 [Example 472, 2,6-dimethyl-3-(phenylsulfonyl)-N-(2-pyridin-2-ylethyl)benzenesulfonamide] has a fold induction at 15 µM [1] of 0.9 and a fold induction at 15 µM [2] of 0.9.
COC(=O)CCNS(=O)(=O)c1cc(S(=O)(=O)c2ccc(F)cc2)ccc1C [Example 160, methyl N-({5-[(4-fluorophenyl)sulfonyl]-2-methylphenyl}sulfonyl)-beta-alaninate] gave a fold induction at 15 µM [1] of 2.4 and a fold induction at 15 µM [2] of 0.9.
With COc1ccccc1CCNS(=O)(=O)c1cc(S(=O)(=O)c2ccccc2)ccc1OC [Example 151, 2-methoxy-N-[2-(2-methoxyphenyl)ethyl]-5-(phenylsulfonyl)benzenesulfonamide] the fold induction at 15 µM [1] was 1.4 and the fold induction at 15 µM [2] was 1.1.
In the case of Cc1ccc(S(=O)(=O)c2ccccc2)cc1S(=O)(=O)NCCCN1CCN(C)CC1 [Example 221, 2-methyl-N-[3-(4-methylpiperazin-1-yl)propyl]-5-(phenylsulfonyl)benzenesulfonamide], the fold induction at 15 µM [1] is reported as 3 and the fold induction at 15 µM [2] is reported as 1.2.
Work on Cc1ccc(S(=O)(=O)c2ccc(C(C)(O)C3CCCCC3)cc2)cc1S(=O)(=O)NCCc1ccccn1 (centres unmarked) [Example 406, 5-{[4-(1-cyclohexyl-1-hydroxyethyl)phenyl]sulfonyl}-2-methyl-N-(2-pyridin-2-ylethyl)benzenesulfonamid] yielded a fold induction at 60 µM (read-out: Fold Induction with SFRP-1, Conc 60 μM, with SFRP-1, fold induction over SFRP-1 control, single dose) of 1.2 and a fold induction at 60 µM (read-out: Fold Induction without SFRP-1, Conc 60 μM, without SFRP-1, single dose) of 0.9.
With O=C(NCCNS(=O)(=O)c1cc(S(=O)(=O)c2ccccc2)ccc1C(F)(F)F)c1ccc(OC(F)(F)F)cc1 [Example 782, N-[2-({[5-(Phenylsulfonyl)-2-(trifluoromethyl)phenyl]sulfonyl}amino)ethyl]-4-(trifluoromethoxy)benzamide] the fold induction at 10 µM was 1.2.
Cc1cc(S(=O)(=O)c2ccccc2)cc(S(=O)(=O)NCCCn2ccnc2)c1C [Example 348, N-[3-(1H-imidazol-1-yl)propyl]-2,3-dimethyl-5-(phenylsulfonyl)benzenesulfonamide] showed a fold induction at 15 µM [1] of 2.5 and a fold induction at 15 µM [2] of 1.2.
CC(C)c1ccc(S(=O)(=O)c2ccc(F)cc2)cc1S(=O)(=O)NC1CC1 [Example 521, N-cyclopropyl-5-[(4-fluorophenyl)sulfonyl]-2-isopropylbenzenesulfonamide] was tested, and the fold induction at 15 µM [3] was 1.7 and the fold induction at 15 µM [4] was 1.
COc1ccc(S(=O)(=O)c2ccccc2)cc1S(=O)(=O)NCCc1ccc(S(N)(=O)=O)cc1 [Example 154, N-{2-[4-(aminosulfonyl)phenyl]ethyl}-2-methoxy-5-(phenylsulfonyl)benzenesulfonamide] gave a fold induction at 15 µM [1] of 1.4 and a fold induction at 15 µM [2] of 1.3.
Cc1ccc(S(=O)(=O)c2ccc(C(C)(C)C)cc2)cc1S(=O)(=O)NCCc1ccccn1 [Example 438, 5-[(4-tert-butylphenyl)sulfonyl]-2-methyl-N-(2-pyridin-2-ylethyl)benzenesulfonamide] gave a fold induction at 15 µM [1] of 1.6 and a fold induction at 15 µM [2] of 1.
Compound Cc1cc(C)c(S(=O)(=O)c2ccccc2)cc1S(=O)(=O)NC1CCOCC1 [Example 327, 2,4-dimethyl-5-(phenylsulfonyl)-N-tetrahydro-2H-pyran-4-ylbenzenesulfonamide] has a fold induction at 15 µM [1] of 2.7 and a fold induction at 15 µM [2] of 1.
Compound C[C@H](NS(=O)(=O)c1cc(S(=O)(=O)c2ccccc2)ccc1C(F)(F)F)[C@H](O)c1ccccc1 [Example 685, N-[(1S,2R)-2-hydroxy-1-methyl-2-phenylethyl]-5-(phenylsulfonyl)-2-(trifluoromethyl)benzenesulfonamide] has a fold induction at 10 µM of 1.5.
Cc1ccc(S(=O)(=O)c2ccc(F)cc2)cc1S(=O)(=O)NCCc1cccc(F)c1 [Example 24, N-[2-(3-fluorophenyl)ethyl]-5-[(4-fluorophenyl)sulfonyl]-2-methylbenzenesulfonamide] showed a fold induction at 30 µM [5] of 0.3 and a fold induction at 30 µM [6] of 0.3.
